From patent publication US7776558B2, “Human G protein-coupled receptor and modulators thereof for the treatment of cell death-related disorders” (Arena Pharmaceuticals, Inc., priority 2003, dated 2010)
Where no end group is shown, it is not given here.

Assays:
human FPRL2 = target: T1, human FPRL2 (Homo sapiens, UniProt P25089); assay: Melanophore assay (pigment aggregation, Gi coupling); type: cell-based; set-up: expressed in transfected cells; conditions: FPRL2 double tagged (HA/V5), transient; FIG. 4; read-out: EC50 of promoted pigment aggregation in melanophore (Gi coupling)
T1 sequence (P25089 with tags, fused parts or gaps): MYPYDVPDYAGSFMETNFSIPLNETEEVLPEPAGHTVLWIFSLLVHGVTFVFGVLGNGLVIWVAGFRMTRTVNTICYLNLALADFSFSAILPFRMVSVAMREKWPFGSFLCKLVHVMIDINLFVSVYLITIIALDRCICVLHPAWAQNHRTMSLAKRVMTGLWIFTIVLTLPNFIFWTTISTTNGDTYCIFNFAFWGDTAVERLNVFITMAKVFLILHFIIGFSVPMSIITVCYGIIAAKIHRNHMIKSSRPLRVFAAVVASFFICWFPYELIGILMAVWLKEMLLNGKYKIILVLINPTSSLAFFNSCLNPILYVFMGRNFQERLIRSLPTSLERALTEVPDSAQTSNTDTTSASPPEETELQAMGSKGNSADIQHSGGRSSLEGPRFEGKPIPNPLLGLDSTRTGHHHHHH
Excerpt: Melanophores are skin cells found in lower vertebrates. They contain pigmented organelles termed melanosomes. Melanophores are able to redistribute these melanosomes along a microtubule network upon G-protein coupled receptor (GPCR) activation. The result of this pigment movement is an apparent lightening or darkening of the cells. In melanophores, the decreased levels of intracellular cAMP that result from activation of a Gi-coupled receptor cause melanosomes to migrate to the center of the cell, resulting in a dramatic lightening in color. If cAMP levels are then raised, following activation of a Gs-coupled receptor, the melanosomes are re-dispersed and the cells appear dark again. The increased levels of diacylglycerol that result from activation of Gq-coupled receptors can also induce this re-dispersion. In addition, the technology is also suited to the study of certain receptor tyrosine kinases. […] The response can be easily detected using a conventional absorbance microplate reader or a modest video imaging system. […]
Melanophores can be utilized to identify compounds, including natural ligands, against GPCRs. […] The test cells are then contacted with chemical compounds, and it is determined whether the pigment disposition in the cells changed from the initial state of pigment disposition. […]

[1] = mice; Mamiya & Ukai 2001; cited from earlier work
[2] = system: human cerebrovascular smooth muscle cells; conditions: cited from earlier work
FPRL1 = target: T2, FPRL1 (Homo sapiens, UniProt P25090); assay: [35S]GTPγS binding assay, membranes of transiently transfected CHO cells; type: biochemical; set-up: Full-Length Cloning of Human GPCRs; expressed in transfected cells; host or cells: CHO-K1 cells, transient, pCMV; plasma membranes; conditions: FIG. 3 panel B, read-out: EC50 at FPRL1, promoted [35S]GTPγS binding
T2 sequence (P25090 1-351): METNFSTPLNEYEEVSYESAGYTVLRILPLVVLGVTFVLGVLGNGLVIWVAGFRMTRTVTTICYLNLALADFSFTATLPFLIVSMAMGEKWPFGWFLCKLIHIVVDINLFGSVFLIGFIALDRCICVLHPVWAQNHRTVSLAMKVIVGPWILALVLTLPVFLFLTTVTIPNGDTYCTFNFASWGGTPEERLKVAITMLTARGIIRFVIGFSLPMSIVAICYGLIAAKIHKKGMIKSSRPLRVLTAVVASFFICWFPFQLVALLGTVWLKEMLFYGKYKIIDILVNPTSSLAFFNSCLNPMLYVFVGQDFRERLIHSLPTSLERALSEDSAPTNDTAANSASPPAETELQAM

Compound	EC50 (human FPRL2) [nM]	Learning and memory impairment [1]	Rescue from Aβ-induced toxicity [2]	EC50 (FPRL1) [nM]
CC[C@H](C)[C@H](NC(=O)[C@H](CCC(=O)O)NC(=O)[C@H](CO)NC(=O)[C@@H](NC(=O)[C@H](CC(C)C)NC(=O)[C@H](CC(C)C)NC(=O)[C@H](CC(C)C)NC(=O)[C@H](CC(C)C)NC(=O)[C@H](CS)NC(=O)[C@H](CO)NC(=O)[C@H](Cc1ccccc1)NC(=O)CNC(=O)[C@H](CCCNC(=N)N)NC(=O)[C@@H]1CCCN1C(=O)[C@H](C)NC(=O)[C@@H](N)CCSC)[C@@H](C)O)C(=O)N[C@@H](CC(=O)O)C(=O)N[C@@H](CC(C)C)C(=O)N1CCC[C@H]1C(=O)N[C@H](C(=O)N[C@@H](CCCCN)C(=O)N[C@@H](CCCNC(=N)N)C(=O)N[C@@H](CCCNC(=N)N)C(=O)N[C@@H](C)C(=O)O)C(C)C [Humanin]	~239	improve learning and memory impairment in mice	rescues human cerebrovascular smooth muscle cells from Aβ-induced toxicity	–
MAPRGFSCLLLLTGEIDLPVKRRA [[Gly14]-Humanin]	–	–	–	~1500
